# Key:
# Carbonic anhydrase 1 = Carbonic anhydrase 1 (Homo sapiens, UniProt P00915); assay: Inhibition of full length carbonic anhydrase-1 in human erythrocytes; format: cell-based
# Carbonic anhydrase 2 = Carbonic anhydrase 2 (Homo sapiens, UniProt P00918); assay: Inhibition of full length carbonic anhydrase-2 in human erythrocytes; format: cell-based
# Carbonic anhydrase 9 = Carbonic anhydrase 9 (Homo sapiens, UniProt Q16790); assay: Inhibition of GST-tagged recombinant carbonic anhydrase-9 catalytic domain (unknown origin)
# Sequence of Carbonic anhydrase 1 (P00915 whole entry): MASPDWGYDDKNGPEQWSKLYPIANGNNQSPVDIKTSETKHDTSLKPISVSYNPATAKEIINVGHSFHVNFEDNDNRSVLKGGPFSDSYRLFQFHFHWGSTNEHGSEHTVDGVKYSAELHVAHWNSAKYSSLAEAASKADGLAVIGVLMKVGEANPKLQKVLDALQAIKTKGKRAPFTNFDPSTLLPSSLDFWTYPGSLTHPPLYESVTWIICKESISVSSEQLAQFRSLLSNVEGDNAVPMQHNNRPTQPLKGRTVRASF
Compound,IC50 (Carbonic anhydrase 1) [nM],IC50 (Carbonic anhydrase 2) [nM],IC50 (Carbonic anhydrase 9) [nM]
NS(=O)(=O)c1cc(C(=O)NCCOc2ccccc2)c(Cl)cc1Cl,16.7,10.6,10.4
NS(=O)(=O)c1ccc(NC(=S)NC(=O)c2ccccc2)cc1,–,–,2.86
NS(=O)(=O)c1ccc(-n2cccc2/C=C2/C(=O)NN(c3ccc(F)cc3)C2=O)cc1,–,42,3.11
NS(=O)(=O)c1ccc(/N=C2/NC(=O)/C(=C/c3cc(O)ccc3Br)S2)cc1,–,–,4.53
Cc1ccc(N2NC(=O)/C(=C/c3cccn3-c3ccc(S(N)(=O)=O)cc3)C2=O)cc1,–,–,14.9
NS(=O)(=O)c1ccc(CCNCc2cccc3ccccc23)cc1,173,153,18.8
CC1=NN(c2ccc(S(N)(=O)=O)cc2)C(=O)/C1=C\C=C\c1ccccc1,–,–,19.1
NS(=O)(=O)c1ccc(NC(=O)c2cccc(N3C(=O)CCC3=O)c2)cc1,–,–,21.6
NS(=O)(=O)c1cccc(NS(=O)(=O)c2ccc3c4c(cccc24)C(=O)N3)c1,–,–,28.4
COc1ccc(Cl)cc1CNCCc1ccc(S(N)(=O)=O)cc1,–,–,68.5
NS(=O)(=O)c1ccc(CNC2CC(=O)N(c3cccc(Br)c3)C2=O)cc1 (stereo not given),–,–,199
COc1ccc(CNc2ccc(S(N)(=O)=O)cc2)cc1OC,–,–,342
CC1=NN(c2cccc(S(N)(=O)=O)c2)C(=O)C1,1190,809,588

# Source: ChEMBL document CHEMBL2390891, “Discovery of new potent inhibitors for carbonic anhydrase IX by structure-based virtual screening” (Bioorg Med Chem Lett, 2013)
